Tests used:
[1] = system: p70S6K; assay: Activity of endogenous p70S6K immunoprecipitated from H4-II-E-C3 hepatoma cells; format: cell-based, rat; conditions: for IC50: insulin-stimulated H4 cells, insulin plus increasing inhibitor concentrations for 30 minutes, read-out: IC50 for inhibition of p70S6K activity
Experimental: (§1) Endogenous Nek6 polypeptide was immunoprecipitated from lysates of rat H4-II-E-C3 hepatoma cells following prior treatment for varying times (min) with 100 nM insulin (FIG. 12B), or insulin plus increasing concentrations of either wortmannin (FIG. 12C) or rapamycin (FIG. 12D) for 30 minutes. Nek6 kinase activity was measured using GST p70S6K ΔCT104 (Thr252Ala) as substrate (see, text for details). The activity of endogenous p70S6K αI/II, immunoprecipitated from the same lysates, was measured using a synthetic peptide substrate. Kinase activities are expressed as either fold increase in baseline activity (as in FIG. 12B; open circles show Nek6 activity; filled squares show p70S6K activity) or as histograms depicting the percent activity remaining for Nek6 (filled bars) or p70S6K (open bars) (as in FIGS. 12C and 12D).
The regulation of endogenous Nek6 activity in vivo was examined. An affinity purified anti-Nek6 peptide antibody raised against a polypeptide comprising an amino terminal murine Nek6 peptide AGQPSHMPHGGSPN (SEQ ID NO:30) conjugated to KLH via a cysteine residue as described above, gave highly specific immunoblots and was capable of modest immunoprecipitation of the endogenous Nek6 polypeptide, although at very low efficiency. Thus far, useful antibodies reactive with endogenous Nek7 have not been obtained. Nek6 immunoreactivity was evident in several commonly used mammalian cell lines including COS7 cells (FIG. 12A). […] Moreover, Nek6 had been isolated as a candidate p70S6 Kinase-Thr412 kinase, and insulin regulation of endogenous p70S6 Kinase (also referred to as p70S6K) had previously been characterized in this cell line (see, Price et al., Proc. Natl. Acad. Sci. USA, 87: 7944-7948 (1990)). Insulin generated a rapid, fifteen-fold activation of endogenous p70S6Kinase in serum-deprived H4 cells; under these conditions, however, no change occurred in the basal activity of immunoprecipitated endogenous Nek6 (FIG. 12B). […] The specific activity of Nek6 in H4 cells is, however, sensitive to serum withdrawal and declines progressively by 80% over 48 hours (FIG. 12E). […]

[2] = system: Nek6; assay: Activity of endogenous Nek6 immunoprecipitated from H4-II-E-C3 hepatoma cells; format: cell-based, rat; conditions: serum-deprived H4 cells; 100 nM insulin
Chain of Nek6 (Q9HC98 whole entry): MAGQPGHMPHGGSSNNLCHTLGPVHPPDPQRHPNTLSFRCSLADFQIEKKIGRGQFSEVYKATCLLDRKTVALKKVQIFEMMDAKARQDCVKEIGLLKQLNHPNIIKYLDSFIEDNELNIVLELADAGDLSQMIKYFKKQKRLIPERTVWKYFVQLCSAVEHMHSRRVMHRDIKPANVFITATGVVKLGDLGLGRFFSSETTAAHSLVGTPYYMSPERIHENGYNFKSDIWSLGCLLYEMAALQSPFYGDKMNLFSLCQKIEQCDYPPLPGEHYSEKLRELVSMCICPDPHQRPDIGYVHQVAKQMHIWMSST
Experimental: as §1
Immunoprecipitates (IP) of recombinant Nek6 (using anti-FLAG or anti-myc antibodies) or endogenous Nek6 were washed three times in the extraction buffer containing 0.5 M LiCl, and twice in kinase buffer (50 mM MOPS pH 7.4, 10 mM MgCl2, 2 mM EGTA, 20 mM β-glycerophosphate). […] Kinase mixtures were resolved by SDS-PAGE, transferred to PVDF membrane, and Nek6 phosphotransferase activity determined by excising Coomassie stained bands corresponding to the substrate and measuring radioactive content by Cerenkov scintillation counting. […]

[3] = system: Nek6; assay: Nek6 kinase assay in vitro with p70S6K ΔCT104 as substrate; format: biochemical, human
Experimental: Transiently expressed FLAG Nek6 was incubated for 1 hour at 4° C. alone or with increasing quantities of either purified prokaryotic recombinant GST (lanes 6-8) or prokaryotic recombinant GST Nercc1 (732-979) (lanes 2-5). Nek6 activity was assayed using p70S6K ΔCT104 as substrate. Upper panel: mean±S.E.M. percent of control Nek6 activity. Lower panels: ^32P autoradiography, Coomassie stain of the GST Nercc1 (732-979) or GST proteins, and western blot of the FLAG Nek6 wild type.
Immunoprecipitates (IP) of recombinant Nek6 (using anti-FLAG or anti-myc antibodies) or endogenous Nek6 were washed three times in the extraction buffer containing 0.5 M LiCl, and twice in kinase buffer (50 mM MOPS pH 7.4, 10 mM MgCl2, 2 mM EGTA, 20 mM β-glycerophosphate). Kinase assays were performed in 30 μl kinase buffer containing 1.5 μg GST-p70S6K ΔCT104 (Thr252Ala) or MBP (0.2 mg/ml) and initiated by addition of [γ-^32P] ATP (5 μM final concentration at 4000 cpm/pmol). Reactions were incubated for 10 minutes at 30° C. and terminated by the addition of 4×SDS sample buffer. Kinase mixtures were resolved by SDS-PAGE, transferred to PVDF membrane, and Nek6 phosphotransferase activity determined by excising Coomassie stained bands corresponding to the substrate and measuring radioactive content by Cerenkov scintillation counting.

[4] = system: BHK cells; assay: Leptomycin B treatment, Nercc localization in transfected BHK cells; format: cell-based, hamster
Experimental: (§2) Cells grown on coverslips were rinsed with PBS, fixed in methanol at −20° C. for 15 min, rinsed twice with PBS and incubated for 30 min at room temperature with the appropriate dilution of primary antibody in PBS. To visualize endogenous Nercc, affinity purified anti-Nercc peptide antibodies (N1 and C1) were employed at 10 μg/ml. Microtubules were visualized with a α/β-tubulin specific antibody. Coverslips were washed with PBS, and incubated with labeled secondary antibodies from corresponding species in appropriate combination-fluorescein or rhodamine X-conjugated donkey anti-rabbit, Cy2 or rhodamine X-conjugated donkey anti-mouse (each at 1:450). Incubation was terminated with a rinse in PBS, and the coverslips were mounted on a microscope slide. For immunodetection blocking, Nercc1 C1- or N1-antibody was incubated for 30 min at 37° C. with a 15-fold molar excess of immunizing peptide. After centrifugation at 12,000× g for 10 min, the mixture was used for immunoblotting or immunocytochemistry, as indicated. To examine the effects of Leptomycin B treatment on Nercc localization, HeLa or BHK21 cells were grown to subconfluency on 25 mm round glass coverslips in DMEM supplemented with 10% fetal bovine serum and penicillin-streptomycin. BHK21 cells were transfected (Fugene, Roche Molecular Biochemicals) with the wild type FLAG Nercc; medium was replaced after 18 hours (h). […]

[5] = system: HeLa cells; assay: Leptomycin B treatment, endogenous Nercc localization in HeLa cells; format: cell-based, human
Experimental: as §2

## COC[C@H]1OC(=O)c2coc3c2[C@@]1(C)C1=C(C3=O)[C@@H]2CCC(=O)[C@@]2(C)C[C@H]1OC(C)=O [wortmannin]
[1]
  IC50: ~30 nM

## Insulin: insulin, used at 100 nM to stimulate H4 cells
[1]; serum-deprived H4 cells, 100 nM insulin
  activation of endogenous p70S6Kinase: fifteen-fold
[2]
  change in basal activity of immunoprecipitated endogenous Nek6: no change

## GST Nercc1 (732-979): fusion protein of GST linked to Nercc amino acids 732-979 of SEQ ID NO:2
[3]
  mode of inhibition of Nek6 catalytic activity: noncompetitive
[3]; concentrations far below those of p70S6K ΔCT104 substrate
  effect on enzymatic activity of preactivated wild type Nek6: substantial inhibition

## CO[C@H]1C[C@@H]2CC[C@@H](C)[C@@](O)(O2)C(=O)C(=O)N2CCCC[C@H]2C(=O)O[C@H]([C@H](C)C[C@@H]2CC[C@@H](O)[C@H](OC)C2)CC(=O)[C@H](C)/C=C(\C)[C@@H](O)[C@@H](OC)C(=O)[C@H](C)C[C@H](C)/C=C/C=C/C=C/1C [rapamycin]
[1]
  IC50: ~2 nM

## CCC(=C/[C@H](C)C/C=C/C(C)=C/[C@@H](C)C(=O)[C@@H](C)[C@H](O)[C@@H](C)C/C(C)=C/C(=O)O)/C=C/[C@@H]1OC(=O)C=C[C@@H]1C [Leptomycin B]
[4]; 20 nM, 30 minutes incubation
  endogenous RanBP1 fluorescence in the nucleus: increased dramatically
[4]; 2, 20 and 200 nM, 30 minutes to 24 hours
  localization of wild type Nercc: remained cytoplasmic
[5]
  response of endogenous Nercc localization: lack of response
